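The compound was tested at five concentrations on cells cultured in 96-well plates, with a 48-hour exposure period. The concentration for 50% growth inhibition is given as GI50. TGI marks complete inhibition of growth.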
Columns and labels:
Assay in all cases: NCI anticancer screen, dose series, 48 h
[1] = system: SW-620 colon
[2] = system: A549 NSCLC
[3] = system: SK-MEL-28 melanoma
[4] = system: UO-31 renal
[5] = system: NCI-H23 lung
[6] = system: SNB-19 CNS
[7] = system: NCI-H460 lung
[8] = system: NCI/ADR-RES ovarian
[9] = system: TK-10 renal
[10] = system: SNB-75 CNS

Compound | GI50 [1] | TGI [1] | GI50 [2] | TGI [2] | GI50 [3] | TGI [3] | GI50 [4] | TGI [4] | GI50 [5] | TGI [5] | GI50 [6] | TGI [6] | GI50 [7] | TGI [7] | GI50 [8] | TGI [8] | GI50 [9] | TGI [9] | GI50 [10] | TGI [10]
CC(C)(O)CCc1cccc(C(=O)c2cnn(-c3ccc(F)cc3)c2N)c1 | > 25 µM | > 25 µM | > 25 µM | > 25 µM | > 25 µM | > 25 µM | > 25 µM | > 25 µM | > 25 µM | > 25 µM | > 25 µM | > 25 µM | > 25 µM | > 25 µM | > 21.9 µM | > 25 µM | > 25 µM | > 25 µM | > 25 µM | > 25 µM
O=C(CSC(c1ccccc1)c1ccccc1)N/N=C/c1ccccc1Cl | 34.7 µM | > 100 µM | 13.6 µM | > 57.3 µM | 46.1 µM | > 100 µM | 30.9 µM | > 100 µM | 12.8 µM | 61.6 µM | 43.9 µM | > 100 µM | 34 µM | > 63.2 µM | 13.6 µM | > 74.6 µM | 14.5 µM | 65.3 µM | 7.6 µM | 30 µM
COc1c(-c2ccc3c(c2)OCO3)oc2cc(O)cc(O)c2c1=O |  |  |  | > 100 µM |  | > 100 µM |  | > 100 µM |  | > 100 µM |  | > 100 µM |  | > 100 µM |  | > 100 µM |  | > 100 µM |  | 53.6 µM
CNCC(=O)NC(CO)C(=O)NC(CO)C(=O)NC1C(C(N)=O)OC(n2ccc(N)nc2=O)C(O)C1O (stereo unspecified) | > 50 µg/mL | > 50 µg/mL | 17 µg/mL | > 50 µg/mL | 21.7 µg/mL | > 50 µg/mL | 12.4 µg/mL | > 50 µg/mL | 8.49 µg/mL | 48.8 µg/mL | 6.5 µg/mL | 45.1 µg/mL | 3.39 µg/mL | 31.3 µg/mL | 5.79 µg/mL | 28 µg/mL | 11 µg/mL | > 50 µg/mL | 1.27 µg/mL | 8.92 µg/mL
O=C(NCc1ccco1)C1CCN(S(=O)(=O)c2ccc(Cl)cc2)CC1 | > 100 µM | > 100 µM | 78.3 µM | > 100 µM | > 100 µM | > 100 µM | 86.6 µM | > 100 µM | > 100 µM | > 100 µM | > 100 µM | > 100 µM | 47.5 µM | > 100 µM | > 100 µM | > 100 µM | > 100 µM | > 100 µM | > 100 µM | > 100 µM
CN(C)CC1C(=O)O[C@H]2[C@H]1CC/C(COC(=O)NCc1ccc(Cn3c(=O)sn(CCCI)c3=O)cc1)=C\CC[C@@]1(C)O[C@@H]21 (stereo partly specified) | 0.998 µM | 2.09 µM | 7.17 µM | 14.4 µM | 0.92 µM | 1.82 µM | 0.775 µM | 1.52 µM | 4.56 µM | 12.9 µM | 7.26 µM | 14.2 µM | 7.77 µM | 17.2 µM | 10.2 µM | 30.1 µM | 0.862 µM | 1.64 µM | 2.73 µM | 9.51 µM
CC1=NN(c2cccc(Cl)c2)C(=O)/C1=C\C=C\c1ccccc1 | 1.74 µM | 3.44 µM | 16.4 µM | > 100 µM | 2.09 µM | 4.3 µM | 1.62 µM | 3.49 µM | 2.32 µM | 6.13 µM | 5.67 µM | > 100 µM | 1.67 µM | 3.28 µM | 3.4 µM | > 100 µM | 3.17 µM | 9.05 µM | 7.12 µM | > 100 µM
[Cl][Hg][c]1ccc2ccccc2c1 | 1.77 µM | 3.62 µM | 12.1 µM | 27.1 µM | 1.6 µM | 3.03 µM | 4.44 µM | 8.23 µM | 1.51 µM | 3.95 µM | 2.22 µM | 5.21 µM | 4.18 µM | 23.8 µM | 2.41 µM | 8.84 µM | 2.92 µM | 6.62 µM | 2.24 µM | 5.79 µM
O=C(NNc1ccccc1)c1ccc(Cl)c(Cl)c1 |  | > 100 µM |  | > 100 µM |  | > 100 µM |  | > 100 µM |  | > 100 µM |  | > 100 µM |  | > 100 µM |  | > 100 µM |  | > 100 µM |  | > 67.8 µM
CCN(CC)S(=O)(=O)c1cccc(-c2ccc3c(NC(=O)C4CC4)n[nH]c3c2)c1 | 2.27 µM | > 6.25 µM | 2.79 µM | > 6.25 µM | 3.06 µM | > 6.25 µM | 3.97 µM | > 6.25 µM | 1.86 µM | > 6.25 µM | 3.13 µM | > 6.25 µM | 2.08 µM | > 6.25 µM | > 6.25 µM | > 6.25 µM | 5.06 µM | > 6.25 µM | 1.32 µM | > 6.25 µM
NC(Cc1cccnn1)C(=O)O (stereo unspecified) |  | > 100 µM |  | > 100 µM |  | > 100 µM |  | > 100 µM |  | > 100 µM |  | > 100 µM |  | > 100 µM |  | > 100 µM |  | > 100 µM |  | > 100 µM
COc1ccc(/C=C\c2cc(OC)c(OC)c(OC)c2)cc1OC(=O)CC(N)C(=O)O (stereo unspecified) | 0.000318 µM | > 100 µM | 0.00304 µM | 49.5 µM | 0.000728 µM | > 100 µM | 0.0017 µM | 58.6 µM | 0.000635 µM | 0.0465 µM | 0.000909 µM |  | 0.00048 µM |  |  | 0.000534 µM | 36.9 µM | > 100 µM | 0.00286 µM | 
CCC[n+]1cc2cc3c(cc2c2c1-c1cc4c(cc1C2)OCO4)OCO3 (tested in a mixture with another compound) | 0.733 µM | 12.8 µM | 2.77 µM | > 52.4 µM | 0.783 µM | 2.49 µM | 3.14 µM | 33.8 µM | 0.679 µM | 3.02 µM | 0.269 µM | 2.18 µM | 0.337 µM | 4.39 µM | > 85.5 µM | > 100 µM | 4.11 µM | 38.6 µM | 0.403 µM | 1.38 µM
OC(CN1CCCC2CCCCC21)c1cc2ccccc2c2ccccc12 (stereo unspecified) | 1.66 µM | 3.36 µM | 4.65 µM | 19.1 µM | 2.06 µM | 4.36 µM | 1.44 µM | 7.41 µM | 2.14 µM | 7.14 µM | 3.52 µM | 15.1 µM | 1.83 µM | 3.53 µM | 2.07 µM | 5.19 µM | 2.3 µM | 7.66 µM | 1.9 µM | 6.83 µM
CCCCSc1nc(N)c2cn[nH]c2n1 | 29.1 µM | > 70 µM | 27.6 µM | > 73.6 µM | 20.3 µM | 40.3 µM | 26.2 µM | > 80.4 µM | 13.8 µM | 30.9 µM | 37.3 µM | > 76.8 µM | 19.6 µM | 51.1 µM | 16.3 µM | 37.4 µM | 7.99 µM | 29.4 µM | 26.4 µM | 69 µM
Cc1nc2sc(C(=O)Nc3ccccc3)c(N)c2cc1C(O)c1ccccc1 (stereo unspecified) | 0.283 µM | > 100 µM | 0.421 µM | > 100 µM | 10.8 µM | > 100 µM | 0.727 µM | > 60.9 µM | 0.664 µM | > 100 µM | 0.446 µM | > 100 µM | 0.329 µM | 1.73 µM | 0.314 µM | 28.8 µM | 6.03 µM | > 100 µM | 0.244 µM | > 72.8 µM
C[C@@H](CS[As](C)C)C(=O)N1CCC[C@H]1C(=O)O | 0.25 µM | 2.05 µM | 1.58 µM | > 100 µM | 0.708 µM | 21.8 µM | 0.0923 µM | 0.8 µM | 0.359 µM | 2.33 µM | 3.76 µM | 31.2 µM | 1.4 µM | 13.7 µM | 0.224 µM | 0.581 µM | 0.268 µM | 1.11 µM | 0.512 µM | 2.25 µM
COC(=O)c1c2c(c(C)[n+]([O-])c1C)C(=O)C(NCc1ccc(F)cc1)=CC2=O | 1.17 µM | 3.2 µM | 1.79 µM | 5.66 µM | 3.2 µM | 15.6 µM | 1.67 µM | 3.77 µM | 1.33 µM | 3.79 µM | 2.1 µM | 5.2 µM | 0.792 µM | 5.98 µM | 1.68 µM | 5.53 µM | 3.32 µM | 36.7 µM | 2.23 µM | 5.96 µM
CCn1cc(C(=O)N/N=C/c2cccs2)c(=O)c2cc(F)c(N3CCNC(C)C3)c(F)c21 (stereo unspecified) | 1.71 µM | 3.17 µM | 1.8 µM | 3.37 µM |  |  | 1.52 µM | 2.96 µM | 1.79 µM | 3.47 µM | 1.61 µM | 2.96 µM | 1.75 µM | 3.24 µM | 1.8 µM | 3.48 µM | 1.72 µM | 3.25 µM | 1.47 µM | 2.83 µM
COc1ccc(/C=C2\COc3ccc(O)c(O)c3C2=O)cc1OC |  |  | 2.6 µM | > 100 µM | 1.8 µM | 3.69 µM | 0.789 µM | 2.19 µM | 1.89 µM | 5.56 µM | 2.06 µM | 7.43 µM | 1.83 µM | 5.02 µM | 1.7 µM | 17.4 µM | 2.66 µM | 27.6 µM | 1.98 µM | 29.1 µM
